This assay deals with multidrug-resistant (MDR) strains of Mycobacterium tuberculosis. Kind of assay: microbe, parasite or virus in culture. In kind it is cell-based. Conditions: read-out: MIC (μg/mL) MDR Strain.

For `Cc1ccc2c(ccc[n+]2CC(=O)c2ccccc2[N+](=O)[O-])c1.[Br-]` [Compound 3a, 6-Methyl-1-(2-(2-nitrophenyl)-2-oxoethyl)quinolin-1-ium bromide], the MIC is 64 µg/mL.

As for `Cc1ccc2c(ccc[n+]2CC(=O)c2ccc(F)cc2)c1.[Br-]` [Compound 3b, 1-(2-(4-Fluorophenyl)-2-oxoethyl)-6-methylquinolin-1-ium bromide], the MIC was found to be 16 µg/mL.

With `Cc1ccc2c(ccc[n+]2CC(=O)c2cc(C(F)(F)F)cc(C(F)(F)F)c2)c1.[Br-]` [Compound 3c, 1-(2-(3,5-Bis(trifluoromethyl)phenyl)-2-oxoethyl)-6-methylquinolin-1-ium bromide], the MIC is 32 µg/mL.

The values above are taken from patent US11884631B1 (priority 2023, dated 2024).
